Reference: patent US20230167088A1, “1-PYRAZINYLPYRAZOLYL-3-OXYALKYL ACIDS AND THEIR DERIVATIVES, AND THEIR USE FOR CONTROL OF UNDESIRED PLANT GROWTH” (BAYER AKTIENGESELLSCHAFT, priority 2020, published 2023)

Key:
ECHCG [1] = test: Herbicidal pre-emergence action 2a (greenhouse pots, visual scoring); assay type: in vivo, Echinochloa crus-galli; conditions: dosage 320 g/ha, visual scoring after about 3 weeks
Procedure, shortened: (§1)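 Dose levels were 320 g/ha and/or 80 g/ha, delivered as an aqueous spray of wettable powder or emulsion concentrate plus 0.5% additive onto soil over sown seeds. Plants grew under good greenhouse conditions for about 3 weeks before visual percentage rating versus untreated pots.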

POAAN [2] = test: Herbicidal post-emergence action 1b (twin sowing, 1280 g/ha); assay type: in vivo, Poa annua; conditions: dosage 1280 g/ha, visual rating about 3 weeks after treatment
Procedure, shortened: (§2)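 Visual % activity vs untreated controls, ~3 wk after treatment (100% = dead, 0% = like control). Plants: one mono- plus one dicot weed species per pot, sandy loam, greenhouse; sprayed at one-leaf stage (2–3 wk post-sowing). Aqueous WP/EC, 0.5% additive, 600 L/ha water.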

MATIN [3] = test: Herbicidal pre-emergence action 2a (greenhouse pots, visual scoring); assay type: in vivo, Matricaria inodora; conditions: dosage 320 g/ha, visual scoring after about 3 weeks vs untreated controls
Procedure, shortened: as §1

ALOMY [4] = test: as above; assay type: in vivo, Alopecurus myosuroides; conditions: dosage 320 g/ha, visual scoring after about 3 weeks
Procedure, shortened: as §1

STEME [5] = test: Herbicidal post-emergence action 1b (twin sowing, 1280 g/ha); assay type: in vivo, Stellaria media; conditions: dosage 1280 g/ha, visual rating about 3 weeks after treatment
Procedure, shortened: as §2

AMARE [6] = test: Herbicidal pre-emergence action 2a (greenhouse pots, visual scoring); assay type: in vivo, Amaranthus retroflexus; conditions: dosage 320 g/ha, visual scoring after about 3 weeks vs untreated controls
Procedure, shortened: as §1

ECHCG [7] = test: Herbicidal post-emergence action 1b (twin sowing, 1280 g/ha); assay type: in vivo, Echinochloa crus-galli; conditions: dosage 1280 g/ha, visual rating about 3 weeks after treatment
Procedure, shortened: as §2

MATIN [8] = test: as above; assay type: in vivo, Matricaria inodora; conditions: dosage 1280 g/ha, visual rating about 3 weeks after treatment
Procedure, shortened: as §2

VIOTR = test: Herbicidal pre-emergence action 2a (greenhouse pots, visual scoring); assay type: in vivo, Viola tricolor; conditions: dosage 320 g/ha, visual scoring after about 3 weeks vs untreated controls
Procedure, shortened: as §1

PHBPU [9] = test: as above; assay type: in vivo, Pharbitis purpurea; conditions: dosage 320 g/ha, visual scoring after about 3 weeks vs untreated controls
From the text: [table] a) Seeds of monocotyledonous and dicotyledonous weed plants and crop plants are placed in plastic or organic plant pots and covered with soil. The compounds of the invention, formulated in the form of wettable powders (WP) or as emulsion concentrates (EC), are then applied onto the surface of the covering soil as aqueous suspension or emulsion with addition of 0.5% additive at a water application rate of 600 1/ha (converted). After the treatment, the pots are placed in a greenhouse and kept under good growth conditions for the trial plants. After about 3 weeks, the effect of the preparations is scored visually in comparison with untreated controls as percentages. For example, 100% activity=the plants have died, 0% activity=like control plants. Tables B1 to B15 below show the effects of selected compounds of the general formula (I) according to Tables 1 and 2 on various harmful plants and an application rate corresponding to 320 g/ha and/or 80 g/ha, which were obtained by the experimental procedure mentioned above.

SETVI = test: as above; assay type: in vivo, Setaria viridis; conditions: dosage 320 g/ha, visual scoring after about 3 weeks vs untreated controls
Procedure, shortened: as §1

STEME [10] = test: Herbicidal pre-emergence action 2b (doubly sown, 1280 g/ha); assay type: in vivo, Stellaria media; conditions: doubly sown pots, dosage 1280 g/ha, visual scoring after about 3 weeks
Procedure, shortened: (§3)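 Pre-emergence soil-surface spray (WP/EC formulation, 0.5% additive, 600 L/ha water) onto covered seeds in sandy loam, doubly sown per pot. Greenhouse ~3 wk; % effect scored visually against untreated pots.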

ECHCG [11] = test: as above; assay type: in vivo, Echinochloa crus-galli; conditions: doubly sown pots, dosage 1280 g/ha, visual scoring after about 3 weeks
Procedure, shortened: as §3

MATIN [12] = test: as above; assay type: in vivo, Matricaria inodora; conditions: doubly sown pots, dosage 1280 g/ha, visual scoring after about 3 weeks
Procedure, shortened: as §3

LOLRI = test: Herbicidal pre-emergence action 2a (greenhouse pots, visual scoring); assay type: in vivo, Lolium rigidum; conditions: dosage 320 g/ha, visual scoring after about 3 weeks vs untreated controls
Procedure, shortened: as §1

ECHCG [13] = test: Herbicidal post-emergence action 1a (greenhouse pots, visual rating); assay type: in vivo, Echinochloa crus-galli; conditions: Dosage 80 g/ha; rated visually about 3 weeks after treatment; 100% = plants have died, 0% = like control plants
Procedure, shortened: (§4)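 Visual scoring versus untreated plants (100% = plants dead, 0% = as control) followed roughly 3 weeks in the greenhouse after treatment. Plants grown in sandy loam pots had been sprayed on green parts at the one-leaf stage, 2–3 weeks post-sowing, with aqueous WP/EC preparations containing 0.5% additive, 600 l/ha, at 320 and/or 80 g/ha.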

POAAN [14] = test: Herbicidal pre-emergence action 2b (doubly sown, 1280 g/ha); assay type: in vivo, Poa annua; conditions: doubly sown pots, dosage 1280 g/ha, visual scoring after about 3 weeks
Procedure, shortened: as §3

ABUTH = test: Herbicidal post-emergence action 1b (twin sowing, 1280 g/ha); assay type: in vivo, Abutilon theophrasti; conditions: dosage 1280 g/ha, visual rating about 3 weeks after treatment
Procedure: [table] b) Seeds of mono- and dicotyledonous weed plants are placed in plastic pots in sandy loam soil (twin sowing with one species each of mono- or dicotyledonous weed plants per pot), covered with soil and cultivated in a greenhouse under controlled growth conditions. 2 to 3 weeks after sowing, the test plants are treated at the one-leaf stage. The compounds of the invention, formulated in the form of wettable powders (WP) or as emulsion concentrates (EC), are applied to the green parts of the plants as aqueous suspension or emulsion with addition of 0.5% additive at a water application rate equivalent to 600 litres per hectare. After the test plants have been kept in the greenhouse under optimum growth conditions for about 3 weeks, the activity of the preparations is rated visually in comparison to untreated controls. For example, 100% activity=the plants have died, 0% activity=like control plants. Tables A16 to A21 below show the effects of selected compounds of the general formula (I) according to Tables 1 and 2 on various harmful plants and at an application rate corresponding to 1280 g/ha, which were obtained by the experimental procedure mentioned above.

ALOMY [15] = test: Herbicidal post-emergence action 1a (greenhouse pots, visual rating); assay type: in vivo, Alopecurus myosuroides; conditions: Dosage 80 g/ha; rated visually about 3 weeks after treatment; 100% = plants have died, 0% = like control plants
Procedure, shortened: as §4

DIGSA [16] = test: Herbicidal pre-emergence action 2b (doubly sown, 1280 g/ha); assay type: in vivo, Digitaria sanguinalis; conditions: doubly sown pots, dosage 1280 g/ha, visual scoring after about 3 weeks
Procedure, shortened: as §3

AVEFA = test: Herbicidal pre-emergence action 2a (greenhouse pots, visual scoring); assay type: in vivo, Avena fatua; conditions: dosage 320 g/ha, visual scoring after about 3 weeks
Procedure, shortened: as §1

AMARE [17] = test: Herbicidal pre-emergence action 2b (doubly sown, 1280 g/ha); assay type: in vivo, Amaranthus retroflexus; conditions: doubly sown pots, dosage 1280 g/ha, visual scoring after about 3 weeks
Procedure, shortened: as §3

VERPE = test: Herbicidal pre-emergence action 2a (greenhouse pots, visual scoring); assay type: in vivo, Veronica persica; conditions: dosage 320 g/ha, visual scoring after about 3 weeks vs untreated controls
Procedure, shortened: as §1

PHBPU [18] = test: Herbicidal post-emergence action 1a (greenhouse pots, visual rating); assay type: in vivo, Pharbitis purpurea; conditions: dosage 80 g/ha, visual rating about 3 weeks after treatment
Procedure, shortened: as §4

DIGSA [19] = test: Herbicidal post-emergence action 1b (twin sowing, 1280 g/ha); assay type: in vivo, Digitaria sanguinalis; conditions: dosage 1280 g/ha, visual rating about 3 weeks after treatment
Procedure, shortened: as §2

POLCO = test: Herbicidal pre-emergence action 2a (greenhouse pots, visual scoring); assay type: in vivo, Polygonum convolvulus; conditions: dosage 320 g/ha, visual scoring after about 3 weeks vs untreated controls
Procedure, shortened: as §1

Row | SMILES | Pre-emergence action against ECHCG in % (ECHCG [1]) [%] | Post-emergence action at 1280 g/ha against POAAN in % (POAAN [2]) [%] | Pre-emergence action against MATIN in % (MATIN [3]) [%] | Pre-emergence action against ALOMY in % (ALOMY [4]) [%] | Post-emergence action at 1280 g/ha against STEME in % (STEME [5]) [%] | Pre-emergence action against AMARE in % (AMARE [6]) [%] | Post-emergence action at 1280 g/ha against ECHCG in % (ECHCG [7]) [%] | Post-emergence action at 1280 g/ha against MATIN in % (MATIN [8]) [%] | Pre-emergence action against VIOTR in % (VIOTR) [%] | Pre-emergence action against PHBPU in % (PHBPU [9]) [%] | Pre-emergence action against SETVI in % (SETVI) [%] | Pre-emergence action at 1280 g/ha against STEME in % (STEME [10]) [%] | Pre-emergence action at 1280 g/ha against ECHCG in % (ECHCG [11]) [%] | Pre-emergence action at 1280 g/ha against MATIN in % (MATIN [12]) [%] | Pre-emergence action at 1280 g/ha against POAAN in % (POAAN [14]) [%] | Post-emergence action at 1280 g/ha against ABUTH in % (ABUTH) [%] | Post-emergence action against ALOMY in % (ALOMY [15]) [%] | Pre-emergence action at 1280 g/ha against DIGSA in % (DIGSA [16]) [%] | Pre-emergence action against AVEFA in % (AVEFA) [%] | Pre-emergence action at 1280 g/ha against AMARE in % (AMARE [17]) [%] | further results
1 | COCCOC(=O)COc1nn(-c2cnccn2)c(-c2ccc(F)nc2)c1Br [Example I-68] | 90 | 100 | 90 | 100 | 100 | 100 | 100 | 90 | 90 | 80 | 100 | 100 | 100 | 100 | 100 | 100 | 80 | 100 | 90 | 100 | Pre-emergence action against LOLRI in % (LOLRI): 80%; Post-emergence action against ECHCG in % (ECHCG [13]): 80%; Pre-emergence action against VERPE in % (VERPE): 90%; Post-emergence action against PHBPU in % (PHBPU [18]): 80%; Post-emergence action at 1280 g/ha against DIGSA in % (DIGSA [19]): 100%
2 | COCCOCCOC(=O)COc1nn(-c2cnccn2)c(-c2ccc(F)nc2)c1Br [Example I-67] | 90 | 100 | 80 | 100 | 90 | 100 | 90 | 100 | 90 | 80 | 90 | 100 | 100 | 100 | 100 | 90 | 90 | 100 | 80 | 100 | Pre-emergence action against POLCO in % (POLCO): 90%; Pre-emergence action against VERPE in % (VERPE): 90%; Post-emergence action at 1280 g/ha against DIGSA in % (DIGSA [19]): 100%
